Measured values: patent US9102622B2 (University of Connecticut, priority 2006, dated 2015)

Key:
[1] = biological target: fatty acid amide hydrolase (FAAH) (Rattus norvegicus (Rat), UniProt P97612); experiment: FAAH enzyme assay: inhibition of anandamide (AEA) hydrolysis, arachidonic acid quantified by HPLC; assay type: biochemical; details: for IC50 / Ki: eight-point assay; for IC50: anandamide hydrolysis by FAAH, read-out: IC50; for Ki: calculated with Prizm software, read-out: Ki; for inhibition at 100 µM: one-point assay, inhibitor 100 μM, partially purified rat brain FAAH, 15 min, read-out: % Inhibition (Concentration)
fatty acid amide hydrolase (FAAH), sequence (P97612 whole entry): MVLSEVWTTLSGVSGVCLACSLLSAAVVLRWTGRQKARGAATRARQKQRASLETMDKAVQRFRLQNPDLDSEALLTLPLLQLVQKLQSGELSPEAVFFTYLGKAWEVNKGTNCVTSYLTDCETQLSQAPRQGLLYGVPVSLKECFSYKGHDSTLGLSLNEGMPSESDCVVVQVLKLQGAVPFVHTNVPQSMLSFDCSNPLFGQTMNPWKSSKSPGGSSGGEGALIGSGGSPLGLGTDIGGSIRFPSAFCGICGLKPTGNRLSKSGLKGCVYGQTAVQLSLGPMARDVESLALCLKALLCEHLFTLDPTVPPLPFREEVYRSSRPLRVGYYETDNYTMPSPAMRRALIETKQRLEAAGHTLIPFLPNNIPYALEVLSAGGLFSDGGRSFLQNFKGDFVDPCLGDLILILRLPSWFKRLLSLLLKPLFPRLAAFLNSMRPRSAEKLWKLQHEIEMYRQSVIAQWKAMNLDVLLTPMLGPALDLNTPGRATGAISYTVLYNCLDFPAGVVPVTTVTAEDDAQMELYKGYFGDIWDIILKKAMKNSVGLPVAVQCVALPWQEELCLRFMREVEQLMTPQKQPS
Experimental: The resulting supernatant is injected onto the HPLC.

SMILES | IC50 [1] [nM] | Ki [1] [nM] | inhibition at 100 µM [1] [%] | melting point [°C]
O=C(CCCCOc1ccc(OCc2ccccc2)cc1)C(F)(F)F [Compound 23.2, 1,1,1-Trifluoro-6-[4-(Benzyloxy)phenoxy]-2-hexanone] | 13600 | 1200 | 76 | 95.5 to 96
Cc1nnc(C(=O)c2cccc(-c3cccc(OCc4ccccc4)c3)c2)o1 [Compound 78, 1-(3′-Benzyloxy-1,1′-biphenyl-3-yl)-1-(5-methyl-1,3,4-oxadiazol-2-yl)-ketone] | – | – | 56 | 97 to 99
O=C(CCCCOc1ccc(O)cc1)C(F)(F)F [Compound 24.2, 1,1,1-Trifluoro-6-[4-(hydroxy)phenoxy]-2-hexanone] | 23200 | 2600 | 60 | 63 to 64
O=S(=O)(F)CCCCCc1ccc(O)cc1 [Compound 14.4, 5-(4-Hydroxy-phenyl)-pentanesulfonyl fluoride] | 346 | – | 99 | 32 to 35
COS(=O)(=O)CCCCCCCc1ccc(OCc2ccccc2)cc1 [Compound 18, 7-(4-Benzyloxy-phenyl)-heptane-1-sulfonic acid methyl ester] | 256 | 78 | 93 | 57 to 59
O=C(CCCCOc1ccccc1)C(F)(F)F [Compound 23.12, 1,1,1-Trifluoro-6-phenoxy-2-hexanone] | 25400 | 2800 | 65 | 50 to 51
O=C(CCCOc1ccc(OCc2ccccc2)cc1)C(F)(F)F [Compound 23.1, 1,1,1-Trifluoro-5-[4-(benzyloxy)phenoxy]-2-pentanone] | 1800 | 150 | 96 | 59 to 61
O=C(CCCCCCOc1ccc(O)cc1)C(F)(F)F [Compound 24.4, 1,1,1-Trifluoro-8-[4-(hydroxy)phenoxy]-2-octanone] | 760 | 54 | 89 | 61 to 62
O=C(CCCOc1ccccc1OCc1ccccc1)C(F)(F)F [Compound 23.8, 1,1,1-Trifluoro-5-[2-(Benzyloxy)phenoxy]-2-pentanone] | 34600 | 2280 | 46 | 50 to 51
O=C(CCCCCOc1ccccc1OCc1ccccc1)C(F)(F)F [Compound 23.10, 1,1,1-Trifluoro-7-[2-(Benzyloxy)phenoxy]-2-heptanone] | 7900 | 553 | 95 | 31 to 32
O=S(=O)(F)CCCCCc1ccc(OCc2ccccc2)cc1 [Compound 13.4, 5-(4-Benzyloxy-phenyl)-pentanesulfonyl fluoride] | 180 | 15 | 97 | 66 to 68
O=C(CCCCCOc1ccc(OCc2ccccc2)cc1)C(F)(F)F [Compound 23.3, 1,1,1-Trifluoro-7-[4-(Benzyloxy)phenoxy]-2-heptanone] | 2900 | 320 | 94 | 59 to 60
O=S(=O)(F)CCCCCCCc1ccc(OCc2ccccc2)cc1 [Compound 13.1, 7-(4-Benzyloxy-phenyl)-heptanesulfonyl fluoride] | – | – | 100 | 35 to 38
O=S(=O)(Cl)CCCCOc1ccccc1 [Compound 16, 4-Phenoxybutyl sulfonyl chloride] | 53800 | 12700 | 99 | 65 to 67
